BindingDB's records for doi:10.7270/Q24M92ZV (Nmmlsc, 2009)

molecular target: Ras-related C3 botulinum toxin substrate 1 (Mus musculus, UniProt P63001); assay: activated mutant Rac1 GTP binding inhibitors, SAR follow-up, biochemical, additional analogs, multiplex bead flow cytometry (AID 2039)

Point of comparison: `O=C1N=c2c(F)cccc2=C1c1[nH]c2ccccc2c1NO` [7-fluoro-3-[3-(hydroxyamino)-1H-indol-2-yl]-2-indolone], EC50 31.6 µM. Against it:
- O=C1Nc2c(Cl)cccc2C1=C1Nc2ccccc2C1=O — within 1.5-fold, 30 µM
- O=C1Nc2c(Br)cccc2C1=C1Nc2ccccc2C1=O — within 1.5-fold, 27.6 µM
- O=C1Nc2c(F)cccc2C1=C1Nc2ccccc2C1=O — within 1.5-fold, 30 µM
- O=C1NC(=O)/C(=C2/C(=O)Nc3ccccc32)N1 — 2.7-fold lower, 11.6 µM
- O=C1Nc2ccc(Br)cc2C1=C1Nc2ccccc2C1=O — 2.6-fold lower, 12.2 µM
- O=C1Nc2ccccc2/C1=C1/Nc2ccccc2C1=O [2-[(3Z)-2-oxo-2,3-dihydro-1H-indol-3-ylidene]-2,3-dihydro-1H-indol-3-one] — within 1.5-fold, 30 µM
- O=C1N=c2ccccc2=C1c1[nH]c2ccccc2c1NO [3-[3-(hydroxyamino)-1H-indol-2-yl]-2-indolone] — within 1.5-fold, 30 µM
- O=C1N=c2ccc(Br)cc2=C1c1[nH]c2ccccc2c1NO [5-bromanyl-3-[3-(oxidanylamino)-1H-indol-2-yl]indol-2-one] — within 1.5-fold, 32.7 µM
- O=C1N=c2c(Br)cccc2=C1c1[nH]c2ccccc2c1NO [7-bromanyl-3-[3-(oxidanylamino)-1H-indol-2-yl]indol-2-one] — within 1.5-fold, 30 µM
- O=C1N=c2c(Cl)cccc2=C1c1[nH]c2ccccc2c1NO [7-chloro-3-[3-(hydroxyamino)-1H-indol-2-yl]-2-indolone] — within 1.5-fold, 30 µM
- O=C1NC(=S)N/C1=C1\C(=O)Nc2ccccc21 [(3Z)-3-(5-oxo-2-sulfanylideneimidazolidin-4-ylidene)-1H-indol-2-one] — 4.5-fold lower, 7 µM
